Source: publication PMC7614683, “A small molecule PI3Kα activator for cardioprotection and neuroregeneration” (Nature, 2023)

Legend:
human p110α/p85α (PI3Kα) = molecular target: T1, human p110α/p85α (PI3Kα) (Homo sapiens, UniProt P42336); experiment: ADP-Glo in vitro lipid kinase assay, PI3Kα; format: biochemical; conditions: for Maximum activity relative to 1938 / Maximum activity relative to pY control: SI Table 3; for reduction in activity: relative to 1938; for EC50: SI Table 3, 1938 analogues, read-out: EC50
T1 construct: Full-length human p110α was expressed either in a complex with full-length human p85α (for HTS, biochemistry and HDX-MS); 6xHis tag followed by TEV protease site (N); host or cells: Spodoptera frugiperda Sf9, baculovirus
Protocol: Kinase reactions were performed with ADP-Glo kinase assay kit (Promega Corporation). The enzyme, substrate and compounds were diluted in reaction buffer (20 mM HEPES, 50 mM NaCl, 50 mM KCl, 3 mM MgCl2, 1 mM EGTA, 1 mM TCEP, pH 7.4). Final concentrations of PI3Kα and PI3Kδ used were 25 nM and 50 nM for PI3Kβ. Liposomes (5% brain PI(4,5)P2, 20% brain phosphatidylserine, 45% brain phosphatidylethanolamine, 15% brain phosphatidylcholine, 10% cholesterol, 5% sphingomyelin (Avanti Polar Lipids)) were used at a final concentration of 1 mg/ml.
For the HTS, the reaction mixture contained 0.75 μl enzyme, 15 nl compound and/or pY and 0.75 μl of liposome substrate mixed with ATP. […] (GL Biochem, Shanghai Ltd). ATP was used at a final concentration of 500 μM unless otherwise stated. The final DMSO concentration in the assay was 1%. The experiments were performed at room temperature for 3 h using 1536-well white-polystyrene plates (Corning #3729) before addition of 2 μl of ADP-Glo R1 to terminate the reaction. The plate was incubated for 40 min, followed by addition of 4 μl of ADP-Glo R2 and incubated further for 60 min in the dark. Luminescence was read using an EnVision (PerkinElmer) plate reader. All analyses were performed using Genedata Screener.
For re-screening of HTS hits and routine compound profiling, the reaction mixture contained 2 μl PI3K enzyme, 2 μl compound and/or pY and 2 μl of liposome substrate mixed with ATP. ATP was used at a final concentration of 500 μM for PI3Kα and PI3Kβ and at 200 μM for PI3Kδ, unless otherwise stated. The final DMSO concentration in the assay was 1%. The experiments were performed at room temperature for 3 h using 384 white-polystyrene plates (Corning #3824) before addition of 6 μl of ADP-Glo R1 to terminate the reaction. The plate was incubated for 45 min, followed by addition of 12 μl of ADP-Glo R2 and incubated further for 60 min in the dark. Luminescence was read using a Sense (Hidex) plate reader. […] All analyses were performed using GraphPad Prism 7.
For characterisation of the effects of 1938 on in vitro PI3K enzymology, all reactions were performed at room temperature with 384 white-polystyrene plates (Corning #3574). The final DMSO concentration in the assay was between 0.5%-1.8%. The reaction mixture contained 2 μl PI3K enzyme, 2 μl compound and/or pY and 2 μl of liposome substrate mixed with ATP. ATP was used at a final concentration of 200 μM, unless otherwise stated.

PI3Kα-KO MEFs = experiment: pAKT S473 western blot, PI3Kα-KO MEFs; format: cell-based, mouse; conditions: TGX-221 0.2 μM
Protocol: Unless otherwise indicated, western blotting was performed with ECL detection. For time course studies, A549 cells were seeded at 250,000 cells per well in 6-well plates in RPMI (10% FBS + 1 mM Na-Pyruvate + 1% P/S) and allowed to adhere overnight. The next day they were serum-starved for 4 h prior to treatment with 100 nM insulin or 5 μM 1938, for the indicated time (5 min to 48 h) at 37°C, 5% CO2. For 1938 titration assays in MEFs, cells were seeded at 150,000 cells per well in 6-well plates and allowed to adhere overnight. The next day they were serum-starved for 4 h prior to treatment with insulin (1 μM), 1938 (0.2 to 30 μM, final DMSO concentration of 1.5%) or inhibitors (final DMSO concentration of ≤1.5%) for 15 min at 37°C, 5% CO2. Cells were washed twice with cold PBS and lysed using cold RIPA buffer (25 mM Tris.HCl pH 7.6, 150 mM NaCl, 1% NP-40, 1% sodium deoxycholate, 0.1% SDS supplemented with protease/phosphatase inhibitor cocktail from Merck). To remove cell debris, homogenates were spun at 13,000 rpm for 15 min at 4°C and the supernatant fraction recovered. Protein concentration was determined by colorimetric assay (BCA assay, Promega). Protein extracts were resolved by SDS-PAGE, transferred to nitrocellulose membranes, and incubated overnight at 4°C with specific antibodies as follows: anti-vinculin (Sigma #V9131) and the following antibodies from Cell Signaling Technology (CST): pAKT-S473 (CST #9271), pS6-S240/244 (CST #2215), pPRAS40-T246 (CST #2640) and total S6 (CST #2317). Primary ntibodies were used at 1:1000 dilution except anti-vinculin (1:10000). Secondary antibodies are also from Cell Signalling Technology: Anti rabbit IgG, HRP linked Antibody (CST #7074S), Anti mouse IgG, HRP linked Antibody (CST #7076S). Raw and uncropped blots are shown in Supplementary Fig. 1.

MEFs = experiment: Phosphoinositide quantification by mass spectrometry, MEFs; format: cell-based, mouse; conditions: 1938 at 5 μM, PDGF 20 ng/ml 2 min
Protocol: (§1) A549 cells (5.10^5) or wild-type MEFs (3.10^5) were plated in complete media onto 3.5 cm dishes or 60 mm dishes respectively for 24 h, prior to FCS-free starvation media for 16 h. MEFs, in addition, were supplemented with arachidonic acid in the FCS-free starvation media as previously described. […] Reactions were terminated in 600 μl ice-cold 1 M HCl and cells scraped and resuspended, then divided into two equal samples in eppendorfs. […] The data are shown as response ratios, calculated by normalizing the multiple reaction monitoring (MRM)-targeted lipid integrated response area to that of a known amount of relevant internal standard. To account for any cell input variability, PIP3 response ratios were normalized to C38:4-PI response ratios; while PI(3,4)P2 response ratios were normalised to PI(4,5)P2 response ratios. Data shown are mean ±SD for n ≥3, except for non-DMSO control in MEF PIP3 measurements where n=1.

A549 cells = experiment: Phosphoinositide quantification by mass spectrometry, A549; format: cell-based, human; conditions: A549, 2 min
Protocol: as §1

T1 sequence (P42336 whole entry): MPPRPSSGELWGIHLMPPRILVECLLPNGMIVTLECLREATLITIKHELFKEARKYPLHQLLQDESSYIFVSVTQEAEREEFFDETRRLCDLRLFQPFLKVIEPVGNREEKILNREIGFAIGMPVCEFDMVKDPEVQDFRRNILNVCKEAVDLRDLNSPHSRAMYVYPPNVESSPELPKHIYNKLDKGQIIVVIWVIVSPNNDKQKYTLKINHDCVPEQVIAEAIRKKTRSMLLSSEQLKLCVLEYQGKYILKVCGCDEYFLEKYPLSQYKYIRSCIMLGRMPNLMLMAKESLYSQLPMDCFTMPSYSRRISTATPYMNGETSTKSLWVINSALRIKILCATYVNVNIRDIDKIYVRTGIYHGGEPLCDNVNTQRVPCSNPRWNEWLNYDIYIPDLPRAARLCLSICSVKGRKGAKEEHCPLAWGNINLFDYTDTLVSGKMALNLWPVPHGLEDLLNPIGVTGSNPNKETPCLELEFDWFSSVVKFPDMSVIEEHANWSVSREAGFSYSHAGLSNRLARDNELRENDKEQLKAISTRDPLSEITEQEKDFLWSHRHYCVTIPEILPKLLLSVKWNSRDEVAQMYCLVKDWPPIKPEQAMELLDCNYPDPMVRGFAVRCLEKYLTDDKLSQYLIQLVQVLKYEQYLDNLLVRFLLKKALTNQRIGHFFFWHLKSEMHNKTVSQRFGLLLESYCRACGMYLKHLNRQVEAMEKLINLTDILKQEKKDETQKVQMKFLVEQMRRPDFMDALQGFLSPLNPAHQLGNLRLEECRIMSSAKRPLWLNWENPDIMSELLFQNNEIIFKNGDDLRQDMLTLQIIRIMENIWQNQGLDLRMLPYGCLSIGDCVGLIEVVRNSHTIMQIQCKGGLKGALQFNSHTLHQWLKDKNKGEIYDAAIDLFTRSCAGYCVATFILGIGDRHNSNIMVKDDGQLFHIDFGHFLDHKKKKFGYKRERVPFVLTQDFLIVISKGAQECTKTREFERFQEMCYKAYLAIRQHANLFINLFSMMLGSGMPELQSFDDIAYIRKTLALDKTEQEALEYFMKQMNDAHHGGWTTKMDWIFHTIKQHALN
T1 sequence (P27986 whole entry partner): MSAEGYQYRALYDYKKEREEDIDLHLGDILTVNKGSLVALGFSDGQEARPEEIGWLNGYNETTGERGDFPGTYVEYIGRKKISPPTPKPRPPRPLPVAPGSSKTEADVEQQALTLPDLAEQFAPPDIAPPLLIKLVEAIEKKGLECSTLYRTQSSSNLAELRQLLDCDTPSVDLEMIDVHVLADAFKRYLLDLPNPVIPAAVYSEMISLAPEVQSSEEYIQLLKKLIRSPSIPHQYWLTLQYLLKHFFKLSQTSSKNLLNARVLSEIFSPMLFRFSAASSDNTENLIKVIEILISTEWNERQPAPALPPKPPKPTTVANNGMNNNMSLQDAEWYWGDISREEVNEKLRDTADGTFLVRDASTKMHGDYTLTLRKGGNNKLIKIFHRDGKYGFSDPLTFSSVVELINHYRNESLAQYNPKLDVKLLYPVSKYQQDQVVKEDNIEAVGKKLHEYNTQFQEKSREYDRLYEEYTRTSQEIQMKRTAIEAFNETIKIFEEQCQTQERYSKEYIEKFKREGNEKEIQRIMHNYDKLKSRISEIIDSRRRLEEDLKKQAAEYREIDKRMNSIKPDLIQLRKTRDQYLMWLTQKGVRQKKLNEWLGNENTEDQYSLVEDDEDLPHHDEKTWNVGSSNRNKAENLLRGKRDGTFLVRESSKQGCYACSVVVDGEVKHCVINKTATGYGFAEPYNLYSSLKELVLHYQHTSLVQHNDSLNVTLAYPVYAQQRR

| Compound | Maximum activity relative to 1938 (human p110α/p85α (PI3Kα)) | Maximum activity relative to pY control (human p110α/p85α (PI3Kα)) | further results |
| --- | --- | --- | --- |
| CCN1CCN(c2ccc(Nc3cc(Nc4ccncn4)ccn3)cc2)CC1 [Compound 2106] | 4% | 14 ± 13% | reduction in activity (human p110α/p85α (PI3Kα)): > 95% |
| CCN1CCN(c2ccc(Nc3nccc(Nc4cccc5c4N(C(C)=O)CC5)n3)cc2)CC1 [Compound 2152] | 4% | 16 ± 8% | reduction in activity (human p110α/p85α (PI3Kα)): > 95% |
| CC(=O)N1CCc2cccc(Nc3ccnc(Nc4ccccc4)c3)c21 [Compound 2016] | 9% | 36 ± 8% | – |
| COc1cc(N2CCN(C)CC2)ccc1Nc1cc(Nc2cccc3c2N(C(C)=O)CC3)ccn1 [Compound 1889] | 102% | – | EC50 (human p110α/p85α (PI3Kα)): 56 ± 24 µM |
| COc1cc(Nc2cc(Nc3cccc4c3N(C(C)=O)CC4)ccn2)cc(OC)c1OC [Compound 1887] | 80% | – | EC50 (human p110α/p85α (PI3Kα)): 36 ± 5 µM |
| Cc1cc(C(C)Nc2ccccc2)c2nc(N3CCOCC3)cc(=O)n2c1 (stereo not drawn) [TGX-221, reference compound] | – | – | effect on insulin-stimulated pAKT^S473 (PI3Kα-KO MEFs): sensitivity of insulin-stimulated pAKT^S473 |
| PDGF | – | – | PI(3,4)P2 signal by mass spectrometry (MEFs): detected; PIP3 response (A549 cells): no PIP3 induced |
